# Measured values: patent publication US9695155B2, “Herbicidal substituted pyrimidinyloxy benzene compounds” (E. I. DU PONT DE NEMOURS AND COMPANY, priority 2013, dated 2017)
# Columns and labels:
# [1] = system: green foxtail; assay: Test D postemergence; type: in vivo, Setaria viridis; settings: Setaria viridis, post-emergence
# How it was run: (§1)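 Visual rating vs untreated controls, 0 = no effect, 100 = complete control, taken 7–21 d after treatment. Pre: silt loam soil. Post: potting medium, plants 2–18 cm, 1–4 leaf. Formulation: non-phytotoxic solvent mix + surfactant.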
# [2] = system: cocklebur; assay: Test E preemergence; type: in vivo, Xanthium strumarium; settings: 125 g ai/ha, scale 0 to 100, 0 no effect, 100 complete control
# How it was run: (§2)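 Test chemicals formulated in a non-phytotoxic solvent mixture containing a surfactant were applied preemergence to seeds in silt loam soil or postemergence to plants at the 1- to 4-leaf stage in potting mix. After 14 to 21 days in a greenhouse, injury was visually rated against controls on a 0-100 scale (0 = no effect, 100 = complete control).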
# [3] = system: oilseed rape; assay: Test D preemergence; type: in vivo, Brassica napus; settings: Brassica napus, pre-emergence
# How it was run: as §1
# [4] = system: chamomile; assay: Test D preemergence; type: in vivo, Matricaria inodora; settings: Tripleurospermum inodorum, pre-emergence
# How it was run: as §1
# [5] = system: windgrass; assay: Test D postemergence; type: in vivo, Apera spica-venti; settings: Apera spica-venti, post-emergence
# How it was run: as §1
# [6] = system: sandbur; assay: Test E postemergence; type: in vivo, Cenchrus echinatus; settings: Cenchrus echinatus, post-emergence, read-out: Plant response rating, Sandbur
# How it was run: as §2
# [7] = system: fall panicum; assay: Test E postemergence; type: in vivo, Panicum dichotomiflorum; settings: Panicum dichotomiflorum, post-emergence, read-out: Plant response rating, Panicum, Fall
# How it was run: as §2
# [8] = system: bromegrass, downy; assay: Test D postemergence; type: in vivo, Bromus tectorum; settings: Bromus tectorum, post-emergence, Postemergence, scale 0 to 100 (0 no effect, 100 complete control), read-out: Plant response rating, Bromegrass, Downy
# How it was run: as §1
# [9] = system: lambsquarters; assay: Test D postemergence; type: in vivo, Chenopodium album; settings: Chenopodium album, post-emergence
# How it was run: as §1
# [10] = system: pigweed; assay: Test D postemergence; type: in vivo, Amaranthus retroflexus; settings: Amaranthus retroflexus, post-emergence
# How it was run: as §1
# [11] = system: green foxtail; assay: Test D preemergence; type: in vivo, Setaria viridis; settings: Setaria viridis, pre-emergence
# How it was run: as §1
# [12] = system: wild mustard; assay: Test D postemergence; type: in vivo, Sinapis arvensis; settings: Brassica, post-emergence
# How it was run: as §1
# [13] = Postemergence, 31 g ai/ha, scale 0 to 100
# [14] = Postemergence, 62 g ai/ha, scale 0 to 100
# [15] = Postemergence, 125 g ai/ha, scale 0 to 100
# [16] = postemergence, 8 g ai/ha, scale 0 to 100, 0 no effect, 100 complete control
# [17] = postemergence, 16 g ai/ha, scale 0 to 100, 0 no effect, 100 complete control
smiles,measurement,setting,value
"Clc1cnc(Oc2ccccc2-n2cc(Br)cn2)nc1 [Compound 7, 2-[2-(4-bromo-1H-pyrazol-1-yl)phenoxy]-5-chloropyrimidine]",pest or weed control at 16 g/ha,"[1]; 16 g ai/ha, scale 0-100, read-out: Plant response rating, Foxtail, Green",0%
same,pest or weed control at 31 g/ha,"[1]; 31 g ai/ha, scale 0 to 100 (0 no effect, 100 complete control), read-out: Plant response rating, Foxtail, Green",0%
same,pest or weed control at 62 g/ha,"[1]; 62 g ai/ha, scale 0 to 100 (0 no effect, 100 complete control), read-out: Plant response rating, Foxtail, Green",0%
same,pest or weed control at 125 g/ha,"[1]; 125 g ai/ha, scale 0 to 100 (0 no effect, 100 complete control), read-out: Plant response rating, Foxtail, Green",10%
same,pest or weed control at 250 g/ha,"[1]; 250 g ai/ha, scale 0 to 100 (0 no effect, 100 complete control), read-out: Plant response rating, Foxtail, Green",20%
same,"Plant response rating, Cocklebur",[2],0
same,plant injury at 16 g/ha,"[3]; 16 g ai/ha, scale 0 (no effect) to 100 (complete control), read-out: Plant response rating, Oilseed Rape",0%
same,plant injury at 31 g/ha,"[3]; 31 g ai/ha, scale 0-100, read-out: Plant response rating, Oilseed Rape",10%
same,plant injury at 62 g/ha,"[3]; 62 g ai/ha, scale 0-100, read-out: Plant response rating, Oilseed Rape",25%
same,plant injury at 125 g/ha,"[3]; 125 g ai/ha, scale 0-100, read-out: Plant response rating, Oilseed Rape",100%
same,plant injury at 250 g/ha,"[3]; 250 g ai/ha, scale 0-100, read-out: Plant response rating, Oilseed Rape",100%
same,pest or weed control at 16 g/ha,"[4]; 16 g ai/ha, scale 0 (no effect) to 100 (complete control), read-out: Plant response rating, Chamomile",0%
same,pest or weed control at 31 g/ha,"[4]; 31 g ai/ha, scale 0-100, read-out: Plant response rating, Chamomile",0%
same,pest or weed control at 62 g/ha,"[4]; 62 g ai/ha, scale 0-100, read-out: Plant response rating, Chamomile",0%
same,pest or weed control at 125 g/ha,"[4]; 125 g ai/ha, scale 0-100, read-out: Plant response rating, Chamomile",20%
same,pest or weed control at 250 g/ha,"[4]; 250 g ai/ha, scale 0-100, read-out: Plant response rating, Chamomile",25%
same,pest or weed control at 16 g/ha,"[5]; 16 g ai/ha, scale 0-100, read-out: Plant response rating, Windgrass",0%
same,pest or weed control at 31 g/ha,"[5]; 31 g ai/ha, scale 0 to 100 (0 no effect, 100 complete control), read-out: Plant response rating, Windgrass",0%
same,pest or weed control at 62 g/ha,"[5]; 62 g ai/ha, scale 0 to 100 (0 no effect, 100 complete control), read-out: Plant response rating, Windgrass",0%
same,pest or weed control at 125 g/ha,"[5]; 125 g ai/ha, scale 0 to 100 (0 no effect, 100 complete control), read-out: Plant response rating, Windgrass",10%
same,pest or weed control at 250 g/ha,"[5]; 250 g ai/ha, scale 0 to 100 (0 no effect, 100 complete control), read-out: Plant response rating, Windgrass",25%
same,pest or weed control at 31 g/ha,[6]; [13],0%
same,pest or weed control at 62 g/ha,[6]; [14],0%
same,pest or weed control at 125 g/ha,[6]; [15],0%
same,pest or weed control at 8 g/ha,[6]; [16],0%
same,pest or weed control at 16 g/ha,[6]; [17],0%
same,pest or weed control at 31 g/ha,[7]; [13],15%
same,pest or weed control at 62 g/ha,[7]; [14],50%
same,pest or weed control at 125 g/ha,[7]; [15],0%
same,pest or weed control at 8 g/ha,[7]; [16],0%
same,pest or weed control at 16 g/ha,[7]; [17],0%
same,pest or weed control at 16 g/ha,[8]; 16 g ai/ha,0%
same,pest or weed control at 31 g/ha,[8]; 31 g ai/ha,0%
same,pest or weed control at 62 g/ha,[8]; 62 g ai/ha,0%
same,pest or weed control at 125 g/ha,[8]; 125 g ai/ha,5%
same,pest or weed control at 250 g/ha,[8]; 250 g ai/ha,5%
same,pest or weed control at 16 g/ha,"[9]; 16 g ai/ha, scale 0-100, read-out: Plant response rating, Lambsquarters",70%
same,pest or weed control at 31 g/ha,"[9]; 31 g ai/ha, scale 0 to 100 (0 no effect, 100 complete control), read-out: Plant response rating, Lambsquarters",70%
same,pest or weed control at 62 g/ha,"[9]; 62 g ai/ha, scale 0 to 100 (0 no effect, 100 complete control), read-out: Plant response rating, Lambsquarters",80%
same,pest or weed control at 125 g/ha,"[9]; 125 g ai/ha, scale 0 to 100 (0 no effect, 100 complete control), read-out: Plant response rating, Lambsquarters",90%
same,pest or weed control at 250 g/ha,"[9]; 250 g ai/ha, scale 0 to 100 (0 no effect, 100 complete control), read-out: Plant response rating, Lambsquarters",100%
same,pest or weed control at 16 g/ha,"[10]; 16 g ai/ha, scale 0-100, read-out: Plant response rating, Pigweed",70%
same,pest or weed control at 31 g/ha,"[10]; 31 g ai/ha, scale 0 to 100 (0 no effect, 100 complete control), read-out: Plant response rating, Pigweed",90%
same,pest or weed control at 62 g/ha,"[10]; 62 g ai/ha, scale 0 to 100 (0 no effect, 100 complete control), read-out: Plant response rating, Pigweed",100%
same,pest or weed control at 125 g/ha,"[10]; 125 g ai/ha, scale 0 to 100 (0 no effect, 100 complete control), read-out: Plant response rating, Pigweed",100%
same,pest or weed control at 250 g/ha,"[10]; 250 g ai/ha, scale 0 to 100 (0 no effect, 100 complete control), read-out: Plant response rating, Pigweed",100%
same,pest or weed control at 16 g/ha,"[11]; 16 g ai/ha, scale 0 (no effect) to 100 (complete control), read-out: Plant response rating, Foxtail, Green",0%
same,pest or weed control at 31 g/ha,"[11]; 31 g ai/ha, scale 0-100, read-out: Plant response rating, Foxtail, Green",0%
same,pest or weed control at 62 g/ha,"[11]; 62 g ai/ha, scale 0-100, read-out: Plant response rating, Foxtail, Green",0%
same,pest or weed control at 125 g/ha,"[11]; 125 g ai/ha, scale 0-100, read-out: Plant response rating, Foxtail, Green",0%
same,pest or weed control at 250 g/ha,"[11]; 250 g ai/ha, scale 0-100, read-out: Plant response rating, Foxtail, Green",20%
same,pest or weed control at 16 g/ha,"[12]; 16 g ai/ha, scale 0-100, read-out: Plant response rating, Mustard, Wild",20%
same,pest or weed control at 31 g/ha,"[12]; 31 g ai/ha, scale 0 to 100 (0 no effect, 100 complete control), read-out: Plant response rating, Mustard, Wild",50%
same,pest or weed control at 62 g/ha,"[12]; 62 g ai/ha, scale 0 to 100 (0 no effect, 100 complete control), read-out: Plant response rating, Mustard, Wild",75%
same,pest or weed control at 125 g/ha,"[12]; 125 g ai/ha, scale 0 to 100 (0 no effect, 100 complete control), read-out: Plant response rating, Mustard, Wild",95%
same,pest or weed control at 250 g/ha,"[12]; 250 g ai/ha, scale 0 to 100 (0 no effect, 100 complete control), read-out: Plant response rating, Mustard, Wild",98%
